From PubChem BioAssay (NCI)
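Five concentrations, 48 hours, 96-well plates. At the GI50, growth is halved. TGI: concentration producing complete growth inhibition.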

Key:
Assay in all cases: inhibition of tumour cell growth, NCI panel, 48 h
RXF 393 renal = tested on: RXF 393 renal
SR leukemia = tested on: SR leukemia
COLO 205 colon = tested on: COLO 205 colon
RPMI-8226 leukemia = tested on: RPMI-8226 leukemia
OVCAR-4 ovarian = tested on: OVCAR-4 ovarian
EKVX NSCLC = tested on: EKVX NSCLC
NCI-H522 lung = tested on: NCI-H522 lung
A498 renal = tested on: A498 renal
UACC-257 melanoma = tested on: UACC-257 melanoma
ACHN renal = tested on: ACHN renal

CCc1c2c(nc3ccc(OCc4ccc(B(O)O)cc4)cc13)-c1cc3c(c(=O)n1C2)COC(=O)[C@]3(O)CC
GI50 (RXF 393 renal): 0.0232 µM
TGI (RXF 393 renal): 0.142 µM
GI50 (SR leukemia): < 0.01 µM
TGI (SR leukemia): > 100 µM
GI50 (COLO 205 colon): 0.0855 µM
TGI (COLO 205 colon): 8.46 µM
GI50 (RPMI-8226 leukemia): 0.184 µM
TGI (RPMI-8226 leukemia): > 100 µM
GI50 (OVCAR-4 ovarian): 0.399 µM
TGI (OVCAR-4 ovarian): 29.7 µM
GI50 (EKVX NSCLC): 0.614 µM
TGI (EKVX NSCLC): > 64 µM
GI50 (NCI-H522 lung): < 0.0183 µM
GI50 (A498 renal): 0.0128 µM
TGI (A498 renal): 0.21 µM
GI50 (UACC-257 melanoma): 0.0943 µM
TGI (UACC-257 melanoma): 2.06 µM
GI50 (ACHN renal): < 0.0179 µM
TGI (ACHN renal): 0.589 µM

CCN1C(=O)N(CC)C2C1NN=c1s/c(=C\c3ccc(Cl)cc3Cl)c(=O)n12 (configuration not stated)
GI50 (RXF 393 renal): 0.0327 µM
TGI (RXF 393 renal): 14.7 µM
GI50 (SR leukemia): 0.0319 µM
TGI (SR leukemia): > 24.8 µM
GI50 (COLO 205 colon): 0.0263 µM
TGI (COLO 205 colon): 0.0748 µM
GI50 (RPMI-8226 leukemia): 0.0391 µM
TGI (RPMI-8226 leukemia): 7.25 µM
GI50 (OVCAR-4 ovarian): 0.0792 µM
TGI (OVCAR-4 ovarian): > 95.9 µM
GI50 (EKVX NSCLC): 0.0423 µM
TGI (EKVX NSCLC): > 100 µM
GI50 (NCI-H522 lung): 0.0216 µM
TGI (NCI-H522 lung): 0.219 µM
GI50 (A498 renal): 0.0194 µM
TGI (A498 renal): 0.0667 µM
GI50 (UACC-257 melanoma): 1.05 µM
TGI (UACC-257 melanoma): > 88.4 µM
GI50 (ACHN renal): 0.0513 µM
TGI (ACHN renal): > 51.2 µM

COc1cc(Cl)cc(=O)c(O)c1OC
TGI (RXF 393 renal): > 100 µM
TGI (SR leukemia): > 100 µM
TGI (COLO 205 colon): > 81.2 µM
TGI (RPMI-8226 leukemia): > 100 µM
TGI (OVCAR-4 ovarian): > 100 µM
TGI (EKVX NSCLC): > 91.8 µM
TGI (NCI-H522 lung): > 64.3 µM
TGI (A498 renal): > 100 µM
TGI (UACC-257 melanoma): > 100 µM
TGI (ACHN renal): > 100 µM

CO/N=C(\COc1ccc2c(c1)[nH]c1ccccc12)c1ccc(OC)cc1
GI50 (RXF 393 renal): 15.8 µM
TGI (RXF 393 renal): > 100 µM
GI50 (SR leukemia): 71.6 µM
TGI (SR leukemia): > 100 µM
GI50 (COLO 205 colon): 92.3 µM
TGI (COLO 205 colon): > 100 µM
GI50 (RPMI-8226 leukemia): > 100 µM
TGI (RPMI-8226 leukemia): > 100 µM
GI50 (OVCAR-4 ovarian): 10.5 µM
TGI (OVCAR-4 ovarian): > 100 µM
GI50 (EKVX NSCLC): 26 µM
TGI (EKVX NSCLC): > 100 µM
GI50 (NCI-H522 lung): 49.1 µM
TGI (NCI-H522 lung): > 100 µM
GI50 (A498 renal): 19.2 µM
TGI (A498 renal): 46 µM
GI50 (UACC-257 melanoma): 11.4 µM
TGI (UACC-257 melanoma): 47.1 µM
GI50 (ACHN renal): 18.8 µM
TGI (ACHN renal): > 100 µM

O=c1cc(-c2cccs2)[nH]c2cc3c(cc12)OCO3
TGI (RXF 393 renal): 8.38 µM
TGI (SR leukemia): > 100 µM
TGI (COLO 205 colon): > 100 µM
TGI (RPMI-8226 leukemia): > 100 µM
TGI (OVCAR-4 ovarian): > 22.2 µM
TGI (EKVX NSCLC): > 100 µM
TGI (NCI-H522 lung): 6.92 µM
TGI (A498 renal): 16.2 µM
TGI (UACC-257 melanoma): > 100 µM
TGI (ACHN renal): > 100 µM

C=C1CCC2C3(C)COC(C)(C)OC3CCC2(C)C1C/C=C1/C(=O)OCC1OC(C)=O (configuration not stated)
GI50 (RXF 393 renal): 1.6 µM
TGI (RXF 393 renal): 3.32 µM
GI50 (SR leukemia): 2.37 µM
TGI (SR leukemia): 9.03 µM
GI50 (COLO 205 colon): 1.72 µM
TGI (COLO 205 colon): 3.43 µM
GI50 (RPMI-8226 leukemia): 2.24 µM
TGI (RPMI-8226 leukemia): 7.49 µM
GI50 (OVCAR-4 ovarian): 2.6 µM
TGI (OVCAR-4 ovarian): 10.1 µM
GI50 (EKVX NSCLC): 9.5 µM
TGI (EKVX NSCLC): 24.4 µM
GI50 (NCI-H522 lung): 0.476 µM
TGI (NCI-H522 lung): 2 µM
GI50 (A498 renal): 16.6 µM
TGI (A498 renal): 31.5 µM
GI50 (UACC-257 melanoma): 2.02 µM
TGI (UACC-257 melanoma): 5.62 µM
GI50 (ACHN renal): 3.12 µM
TGI (ACHN renal): 10.5 µM

N#CC(C#N)=C/C=C(\Cl)c1ccc(Cl)cc1
GI50 (RXF 393 renal): 7.63 µM
TGI (RXF 393 renal): 34.9 µM
GI50 (SR leukemia): 3.31 µM
TGI (SR leukemia): 37.3 µM
GI50 (COLO 205 colon): 7.72 µM
TGI (COLO 205 colon): > 52.1 µM
GI50 (RPMI-8226 leukemia): 4.12 µM
TGI (RPMI-8226 leukemia): > 100 µM
GI50 (OVCAR-4 ovarian): 5.12 µM
TGI (OVCAR-4 ovarian): 55.6 µM
GI50 (EKVX NSCLC): 23.8 µM
TGI (EKVX NSCLC): 55.4 µM
GI50 (NCI-H522 lung): 5.81 µM
TGI (NCI-H522 lung): > 49.6 µM
GI50 (A498 renal): 20.5 µM
TGI (A498 renal): 38.6 µM
GI50 (UACC-257 melanoma): 14.8 µM
TGI (UACC-257 melanoma): 30.2 µM
GI50 (ACHN renal): 9.96 µM
TGI (ACHN renal): 37.2 µM

O=C(Nc1cccc(Cl)c1)Nn1cnnc1
GI50 (RXF 393 renal): > 50 µM
TGI (RXF 393 renal): > 100 µM
TGI (SR leukemia): > 100 µM
GI50 (COLO 205 colon): > 50 µM
TGI (COLO 205 colon): > 100 µM
GI50 (RPMI-8226 leukemia): > 50 µM
TGI (RPMI-8226 leukemia): > 100 µM
GI50 (OVCAR-4 ovarian): > 50 µM
TGI (OVCAR-4 ovarian): > 100 µM
TGI (EKVX NSCLC): > 100 µM
GI50 (NCI-H522 lung): > 50 µM
TGI (NCI-H522 lung): > 100 µM
GI50 (A498 renal): > 50 µM
TGI (A498 renal): > 100 µM
GI50 (UACC-257 melanoma): > 50 µM
TGI (UACC-257 melanoma): > 100 µM
GI50 (ACHN renal): > 50 µM
TGI (ACHN renal): > 100 µM

C=CCc1c(Cl)nc(Cl)nc1Cl
TGI (RXF 393 renal): 0.601 µM
TGI (SR leukemia): > 100 µM
TGI (COLO 205 colon): 0.696 µM
TGI (RPMI-8226 leukemia): > 100 µM
TGI (OVCAR-4 ovarian): 0.84 µM
TGI (EKVX NSCLC): 2.58 µM
TGI (NCI-H522 lung): 0.19 µM
TGI (A498 renal): 3.49 µM
TGI (UACC-257 melanoma): 1.9 µM
TGI (ACHN renal): 1.2 µM
